From ChEMBL document CHEMBL1125225, “Delineating the pharmacophoric elements of huperzine A: importance of the unsaturated three-carbon bridge to its AChE inhibitory activity” (J Med Chem, 1991)

Biological target: T1, Acetylcholinesterase (Rattus norvegicus, UniProt P37136)
T1 sequence (P37136 whole entry): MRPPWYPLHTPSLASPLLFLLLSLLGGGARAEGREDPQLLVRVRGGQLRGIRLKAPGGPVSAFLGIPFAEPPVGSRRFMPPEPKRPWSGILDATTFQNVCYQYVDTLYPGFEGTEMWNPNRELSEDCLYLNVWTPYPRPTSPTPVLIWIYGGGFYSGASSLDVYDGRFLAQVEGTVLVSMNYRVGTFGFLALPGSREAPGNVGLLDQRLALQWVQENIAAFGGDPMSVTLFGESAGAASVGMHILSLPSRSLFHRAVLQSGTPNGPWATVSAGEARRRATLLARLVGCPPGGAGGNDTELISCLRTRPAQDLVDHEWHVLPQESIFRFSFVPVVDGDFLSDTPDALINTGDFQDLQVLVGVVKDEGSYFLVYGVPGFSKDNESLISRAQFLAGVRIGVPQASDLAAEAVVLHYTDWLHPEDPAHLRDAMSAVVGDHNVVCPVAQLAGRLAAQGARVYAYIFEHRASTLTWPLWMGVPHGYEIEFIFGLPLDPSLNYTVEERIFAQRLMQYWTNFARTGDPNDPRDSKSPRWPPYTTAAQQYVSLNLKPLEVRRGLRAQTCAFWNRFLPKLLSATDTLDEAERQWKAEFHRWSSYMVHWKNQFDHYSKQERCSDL
Experiment: Compound was tested for its ability to inhibit the action of acetylcholinesterase isolated from rat brain cortex

First: C/C=C1\C2CCC[C@]1(N)c1ccc(O)nc1C2
Second: C/C=C1\CCc2[nH]c(=O)ccc2[C@]1(C)N
The IC50 of the first is 34-fold lower: 9.82 µM for the first, 338 µM for the second. The first is the more potent here.

`NCc1ccc(O)nc1` and `CN(C)Cc1ccc(=O)[nH]c1` cannot be ordered by IC50: greater than 900 µM for the first, greater than 900 µM for the second.
